From PubChem BioAssay AID1626 (SRMLSC, 2009)

System: M. tuberculosis H37Rv growth inhibition
Assay: M. tuberculosis H37Rv growth inhibitors, H37Rv strain (AID 1626)
Details: for IC90: measured here: IC90 against H37Rv; for CC50: measured here: Vero cell cytotoxicity

| Compound | IC50 | IC90 | CC50 |
| --- | --- | --- | --- |
| CCOC(=O)c1ccc(NC(=O)c2cc3ccccc3o2)cc1 | 4.67 µM | > 100 µM |  |
| CCC(=O)c1coc2ccc(O)cc12 | 11.1 µM | > 100 µM |  |
| CNC1=C(N(C(C)=O)c2ccc(Br)cc2)C(=O)c2ccccc2C1=O | 0.654 µM | 2.54 µM | 10 µM |
| CC1CC(C)CN(C(=O)COC(=O)c2cc3ccccc3cc2O)C1 (centres undefined) | 0.592 µM | 4.29 µM |  |
| CCOC(=O)CSc1nnc(-c2ccccc2NC(=O)c2ccccc2)o1 | 2.75 µM | > 100 µM |  |
| COc1ccc(-c2nc(Cn3c(SCc4ccc(C)cc4)nc4ccncc43)c(C)o2)cc1OC | 6.52 µM | > 100 µM | > 40 µM |
| O=C(c1ccc([N+](=O)[O-])s1)N1CCN(c2cccc(Cl)c2)CC1 | 9.2 µM | 12.8 µM | 31.6 µM |
| Cc1ccc(-c2cc(C(F)F)n3ncc(C(=O)Nc4c(C)nn(Cc5ccccc5Cl)c4C)c3n2)cc1 | 2.16 µM | > 100 µM | 24.4 µM |
| COc1ccc(C[C@H]2CN3C(=NC[C@@H]3Cc3ccccc3)N2CCNC(=O)CCC2CCCCC2)cc1 | 9.05 µM | 11.6 µM | 17.7 µM |
| COC(=O)c1ccccc1Sc1ncnc2onc(C)c12 | 15.3 µM | 30.7 µM | > 40 µM |
| CCCCOC(=O)c1ccc(OC(=O)c2cccnc2)cc1 | 7.04 µM | > 100 µM | > 40 µM |
| O=c1cc(-c2c(F)c(F)c(F)c(F)c2F)oc2ccccc12 | 0.221 µM | 2.3 µM | > 40 µM |
| O=C(Cc1cccs1)Nc1cccc(-c2nc3cc4ccccc4cc3[nH]2)c1 | 15.5 µM | 24.3 µM | 21 µM |
| Cc1nn(-c2ccccc2)c(N)c1C(c1ccc(C(C)C)cc1)c1c(C)nn(-c2ccccc2)c1N | 8.73 µM | 13 µM | > 40 µM |
| COc1ccc(C(=O)C(CN2CCOCC2)c2ccccc2)cc1F (centres undefined) | 11.5 µM | 12.5 µM | 16.1 µM |
| CC(NC(=O)Nc1ccc(Br)cc1)C(C)(C)C (centres undefined) | 0.42 µM | > 100 µM |  |
| Cc1ccccc1N1CCN(C2=NC(=O)/C(=C\c3cccs3)S2)CC1 | 14.2 µM | 21 µM | > 40 µM |
| O=C(COC(=O)c1cccs1)c1ccc2c(c1)OCCO2 | 8.66 µM | 19.2 µM |  |
| N=C(N)c1ccc(OCCCCCOc2ccc(C(=N)N)cc2)cc1 | 1.51 µM | 1.72 µM | > 40 µM |
| O=C(Nc1nc(-c2ccccn2)cs1)C1CC(=O)N(c2ccc3c(c2)OCCO3)C1 (centres undefined) | 17.2 µM | > 100 µM | 36.7 µM |
| CN1Cc2c(N3CCOCC3)nc3sc(C(=O)c4ccc(Br)cc4)c(N)c3c2CC1(C)C | 5.56 µM | 6.26 µM | 10.2 µM |

| Compound | IC50 | IC90 | CC50 |
| --- | --- | --- | --- |
| S=c1[nH]cnc2scc(-c3ccc(Br)cc3)c12 |  | > 100 µM | 34.8 µM |
| CCCCOC(=O)Cn1c(-c2ccccc2)nc2ccccc2c1=O | 7.75 µM | 18.5 µM |  |
| O=C(Nc1ccc(-c2csc(Nc3cccc(C(F)(F)F)c3)n2)cc1)c1cc([N+](=O)[O-])cc(C(F)(F)F)c1 | 7.37 µM | > 100 µM | 20.2 µM |
| COc1cccc(C2C3=C(N=c4s/c(=C\c5cccc(O)c5)c(=O)n42)c2ccccc2CC3)c1OC (centres undefined) | 8.79 µM | 13.9 µM | 23.9 µM |
| c1ccc2c(Nc3ccc4c(c3)OCCO4)c3c(nc2c1)CCCC3 | 11.3 µM | 29.1 µM | > 40 µM |
| Nc1ccc(Oc2ccc(Br)cc2)cc1 | 30.8 µM | > 100 µM |  |
| CCOC(=O)CSc1ccc(-c2nc3cc(C)c(C)cc3[nH]2)cn1 | 1.09 µM | 2.24 µM |  |
| O=C(/C=C/c1ccco1)Nc1nc(-c2ccccn2)cs1 | 0.446 µM | 3.54 µM | > 40 µM |
| CCn1cnc2sc(C(=O)Oc3cccc(C)c3)c(C)c2c1=O | < 0.195 µM | 2.36 µM |  |
| Cc1nc(N2CCN(c3ccccn3)CC2)c2c(C)c(C(=O)Nc3ccccc3F)sc2n1 | 8.96 µM | > 100 µM | > 40 µM |
| O=C(CSc1nccc(=O)[nH]1)Nc1ccc(Br)c(Cl)c1 | 40.6 µM | > 100 µM |  |
| O=C(Nc1ccc(CSc2ccccc2)cc1)c1ccc(CN2CCOCC2)cc1 | 32.2 µM | > 100 µM | > 40 µM |
| CCOC(=O)c1ccc(NC(=O)CCc2nc(-c3ccc(C)cc3)no2)cc1 | 1.36 µM | 12.4 µM | > 40 µM |
| Cn1c(O)c(C=Nc2ccccc2-c2ccccc2)c(=O)n(C)c1=O |  |  | > 40 µM |
| O=C(CNC1CCCC1)Nc1ccc(N2CCCCCC2)cc1 | 8.04 µM | 10.2 µM | 37.7 µM |
| O=C(NCCN1CCOCC1)c1ccc([N+](=O)[O-])cc1[N+](=O)[O-] | 2.11 µM | 3.4 µM |  |
| CCOC(=O)/C=C/C(=O)Nc1ccc(Oc2ccccc2)cc1 | 1.2 µM | > 100 µM | > 40 µM |
| O=C(c1cc2nc(-c3ccc(F)cc3)cc(C(F)(F)F)n2n1)N1CCCCC1c1cccnc1 (centres undefined) | 9.18 µM | 14 µM | > 40 µM |
| c1ccc2c(NC3C4CC5CC(C4)CC3C5)nc(N3CCOCC3)nc2c1 (centres undefined) | 1.89 µM | 3.08 µM | 27.9 µM |
| O=[N+]([O-])c1ccc(Sc2nnnn2-c2ccccc2)nc1 | 8.34 µM | 12.6 µM | 8.99 µM |
| Cc1nc(-c2ccccn2)nc(SCC(=O)c2ccccc2)c1Cl | 3.68 µM | 6.49 µM | > 40 µM |

| Compound | IC50 | IC90 | CC50 |
| --- | --- | --- | --- |
| COC(=O)CSc1cc(SCC(=O)OC)c(C#N)c(SCC(=O)OC)c1 | 0.785 µM | 2.61 µM |  |
| O=C1C(=O)c2ccc(-c3ccccc3)cc2-c2ccccc21 | 1.47 µM | 1.66 µM | 3.09 µM |
| Cc1ccc(C(=O)/C=C\Nc2ccc(C)c(C)c2)cc1 |  | > 100 µM |  |
| O=C(Nc1ccc(CN2CCOCC2)cc1)c1ccc(-c2ccc(Br)cc2)o1 | 7.09 µM | 13.2 µM | 32 µM |
| O=C(Nc1nnc(-c2ccc(Cl)s2)o1)C1CCCCC1 | 3.84 µM | > 100 µM | > 40 µM |
| NS(=O)(=O)c1ccc(CCNc2ncnc3c2c(-c2ccccc2)cn3-c2ccc(F)cc2)cc1 | 5.77 µM | 6.76 µM | > 40 µM |
| Oc1cccc(-c2nc3ccc4ccccc4c3c3c2CCC3)c1 | 16.8 µM | 27 µM | > 40 µM |
| COc1cccc(OCCNC(=O)c2cc([N+](=O)[O-])cc([N+](=O)[O-])c2)c1 | < 0.195 µM | 0.747 µM |  |
| CCOc1ccc2c3c(c(=O)oc2c1OCC)CCCC3 | 7.11 µM | 12.8 µM |  |
| CC1CC1C(=O)Nc1ccc(-c2ccccc2)cc1 (centres undefined) | 0.31 µM | > 100 µM |  |
| O=C(CCN1C(=O)C2CCCCC2C1=O)Nc1nc(-c2ccc(F)c(F)c2)cs1 (centres undefined) | 47.5 µM | > 100 µM |  |
| O=C(Cn1nc(CNc2ccc(Cl)cc2)[n+]2c1CCCCC2)c1ccc(Br)cc1 | 4.63 µM | 7.74 µM |  |
| CCCCn1c(O)c(C(CC)=Nc2ccc(OCC)cc2)c(=O)[nH]c1=O | 7.89 µM | > 100 µM | > 40 µM |
| O=C(Nc1ccc(-n2cccc2)cc1)C1CC1 | < 0.195 µM | > 100 µM |  |
| COc1ccc(N=C2C(=O)Nc3c(C)cccc32)cc1 |  | > 100 µM |  |
| CCOC(=O)C(Cc1ccccc1)C(=O)Nc1cccc2ccccc12 (centres undefined) | 4 µM | 12.7 µM |  |
| Brc1c(-c2ccc3c(c2)OCO3)nc2ncccn12 | 2.23 µM | 7.15 µM | > 40 µM |
| O=C(C[n+]1cc(-c2ccc(Cl)c(Cl)c2)n2c1CCC2)N1c2ccccc2Sc2ccccc21 | 12.2 µM | 13.9 µM |  |
| COc1ccc(N/C=C2\CCOC2=O)cc1 |  | > 100 µM |  |
| CCOC(=O)c1ccc(NC(=O)CSC2=NC(=O)C(CC)C(=O)N2)cc1 (centres undefined) | 24.3 µM | > 100 µM |  |
| CCOc1ccc(NC2=C(OC)C(=O)c3ccccc3C2=O)cc1 | 28.3 µM | 44.1 µM | > 40 µM |

| Compound | IC50 | IC90 | CC50 |
| --- | --- | --- | --- |
| CC(C)(C)C(=O)/C(=C/c1ccncc1)n1cncn1 | 8.39 µM | 11.7 µM | 5.11 µM |
| Cc1cc(Cl)ccc1OCCCC(=O)NO | 28.6 µM | > 100 µM | 35.7 µM |
| CCOC(=O)Cn1c(-c2ccccc2)ccc(C#N)c1=O | 4 µM | > 100 µM |  |
| Cc1ccccc1NC(=O)/C=C/c1ccc([N+](=O)[O-])s1 | 1.46 µM | 1.92 µM | 18.6 µM |
| O=[N+]([O-])c1ccc(Sc2cccc3cccnc23)c([N+](=O)[O-])c1 | 32.9 µM | > 100 µM | 4.55 µM |
| O=Cc1ccc2oc3nc4n(c(=O)c3c(=O)c2c1)CCCS4 | 0.441 µM | 1.24 µM |  |
| O=C(CSc1ccc(-c2ccccn2)nn1)c1ccc(F)cc1 | 22.2 µM | 36 µM |  |
| CCOc1ccc(N/C=C\C(=O)c2ccc3c(c2)OCO3)cc1 | 4.53 µM | > 100 µM |  |
| COC(=O)C(C)Oc1ccc(-c2nccc(-c3cccs3)n2)cc1 (centres undefined) | 0.829 µM | 2.74 µM |  |
| CC(C)(C)c1cc(NCCCn2ccnc2)n2ncc(-c3ccc(Cl)cc3)c2n1 | 0.939 µM | 1.43 µM | 22.3 µM |
| CCCc1cc(-c2nc(-c3ccc(Br)cc3)cs2)ccn1 | 5.68 µM | 10.4 µM |  |
| Nc1cccc(-c2cc3ccccc3oc2=O)c1 | 29.4 µM | > 100 µM |  |
| COc1ccc2cc(C(c3nnnn3C3CCCC3)N3CCCCCC3)c3nnnn3c2c1 (centres undefined) |  |  | 15.1 µM |
| CCCOC(=O)c1ccc(NC(=O)COC)cc1 | 11.9 µM | > 100 µM |  |
| CCOc1ccc(NC(=O)CCSc2ccc3ccccc3n2)cc1 | 6.54 µM | > 100 µM |  |
| COc1ccc(NC(=O)CSC2=NCCN2)cc1 |  | > 100 µM |  |
| CCN(CC)Cc1nc2c(c(=O)[nH]1)C1(CCCCC1)Cc1ccccc1-2 | 6.77 µM | > 100 µM |  |
| O=C(Nc1ccc(Nc2ccncc2)cc1)c1ccc(Nc2ccnc3ccc([N+](=O)[O-])cc23)cc1[N+](=O)[O-] | 1.39 µM | 1.57 µM | > 40 µM |
| O=C(c1c[nH]c(C(=O)N2CCN(c3ccccc3F)CC2)c1)c1cccc(Cl)c1Cl |  |  | 16.9 µM |
